Laboratory results taken from publication PMC5342262, “Synthesis, in vitro and in vivo evaluation of 3β-[^18F]fluorocholic acid for the detection of drug-induced cholestasis in mice” (PLoS ONE, 2017).

Experiments:
[1] = biological target: T1, OATP1B1 (Homo sapiens, UniProt Q9Y6L6); experiment: In vitro uptake assay with [^3H]EbG in HEK-OATP1B1 cells
T1 sequence (Q9Y6L6 1-691): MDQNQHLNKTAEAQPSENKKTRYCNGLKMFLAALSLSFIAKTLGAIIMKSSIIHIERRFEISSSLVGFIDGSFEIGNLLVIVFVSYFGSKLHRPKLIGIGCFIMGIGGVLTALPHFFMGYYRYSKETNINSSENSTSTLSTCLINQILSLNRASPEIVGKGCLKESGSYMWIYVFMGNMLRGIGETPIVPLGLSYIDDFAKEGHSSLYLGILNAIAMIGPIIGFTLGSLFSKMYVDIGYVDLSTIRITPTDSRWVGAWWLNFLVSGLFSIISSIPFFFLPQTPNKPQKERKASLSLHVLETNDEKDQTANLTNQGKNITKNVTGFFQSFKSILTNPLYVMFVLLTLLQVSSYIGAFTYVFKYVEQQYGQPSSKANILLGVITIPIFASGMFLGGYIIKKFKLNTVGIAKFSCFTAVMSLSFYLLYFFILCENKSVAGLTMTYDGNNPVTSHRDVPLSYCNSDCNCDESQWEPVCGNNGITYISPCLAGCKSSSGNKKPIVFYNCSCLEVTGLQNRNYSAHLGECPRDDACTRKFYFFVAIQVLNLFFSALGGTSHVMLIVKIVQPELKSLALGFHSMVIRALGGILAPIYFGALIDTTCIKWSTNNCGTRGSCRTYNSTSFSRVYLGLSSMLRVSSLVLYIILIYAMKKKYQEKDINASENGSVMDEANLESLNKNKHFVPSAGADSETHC
Procedure: (§1) Transport of 3β-fluorocholic acid by NTCP, OATP1B1 and OATP1B3 was assessed using stable transfected cell lines. Chinese hamster ovary (CHO) cells, Human Embryonic Kidney (HEK), HEK293-OATP1B3 cells were purchased from Solvo Biotechnologies; CHO-NTCP and HEK293-OATP1B1 cells were a kind gift from the same company. CHO cells were cultured in Dulbecco’s modified Eagle’s medium (DMEM)/F12 with 10% fetal calf serum, 0.3 mM L-proline, 2 mM glutamine and penicilline/streptomycine (50 U/mL). HEK cells expressing OATP1B1, OATP1B3 and control cell lines were cultured in DMEM glutamax (high glucose/pyruvate) with 10% fetal calf serum, MEM non-essential amino acid supplement and penicilline/streptomycine (50 U/mL). All cell lines were cultured in a 37°C 5% CO2 environment.
(§2) Transport of FCA by the NTCP, OATP1B1 and OATP1B3 transporters was assessed by inhibition of the tritium labeled model substrates uptake.
(§3) Cells were seeded in 24-well plates at 400,000 cells per well. […] The plates were cooled on ice and 1 mL 1% BSA ice-cold HBSS (with Ca and Mg) was added. Cells were washed twice with 2 mL ice-cold HBSS (with Ca and Mg) and were finally lysed with 250 μL 0.1 M NaOH. […] Of the lysate, 150 μL was used for liquid scintillation counting (TriCarb 2900 TR; Perkin Elmer) and 25 μL was subjected to a BCA assay (ThermoFisher Scientific) to determine protein content. Data points were collected in triplicate. IC50-values were calculated with Graphpad Prism v3.00 (Graphpad software).

[2] = biological target: T2, OATP1B3 (Homo sapiens, UniProt Q9NPD5); experiment: In vitro uptake assay with [^3H]EbG in HEK-OATP1B3 cells
T2 sequence (Q9NPD5 1-702): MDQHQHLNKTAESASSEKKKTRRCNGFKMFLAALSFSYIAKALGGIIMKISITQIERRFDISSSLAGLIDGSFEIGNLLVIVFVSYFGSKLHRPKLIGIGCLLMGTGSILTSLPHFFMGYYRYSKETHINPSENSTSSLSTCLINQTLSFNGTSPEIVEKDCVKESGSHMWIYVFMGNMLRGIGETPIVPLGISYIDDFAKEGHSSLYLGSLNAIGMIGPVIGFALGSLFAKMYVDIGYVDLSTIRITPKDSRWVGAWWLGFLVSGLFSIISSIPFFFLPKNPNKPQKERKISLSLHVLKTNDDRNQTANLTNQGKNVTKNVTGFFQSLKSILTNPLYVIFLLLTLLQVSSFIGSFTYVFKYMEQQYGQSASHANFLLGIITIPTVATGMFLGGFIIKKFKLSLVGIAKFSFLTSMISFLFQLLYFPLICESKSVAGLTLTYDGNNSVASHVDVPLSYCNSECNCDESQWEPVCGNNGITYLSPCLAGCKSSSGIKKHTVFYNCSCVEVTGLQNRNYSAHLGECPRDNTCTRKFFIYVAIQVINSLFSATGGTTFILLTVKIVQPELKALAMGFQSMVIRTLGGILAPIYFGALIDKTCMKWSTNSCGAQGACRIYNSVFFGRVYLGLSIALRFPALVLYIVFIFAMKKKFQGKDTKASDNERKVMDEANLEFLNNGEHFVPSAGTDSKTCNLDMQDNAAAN
Procedure: as §1, §2, §3

[3] = biological target: MRP2 (Homo sapiens, UniProt Q92887); experiment: In vitro efflux competition assay with [^3H]EbG in MRP2 membrane vesicles; settings: 10 minutes of incubation
Procedure: The assay was performed in 96-well plates. […] The final volume in each well was 30 μL. The plates were incubated for 10 minutes at 37°C and uptake was halted by the addition of 150 μL ice-cold buffer solution. The contents of each well were transferred to a glass fiber filter plate (Multiscreen HTS plates; Merck Millipore) and washed 3 times with 200 μL of ice-cold buffer solution. Vesicles were lysed by incubation with 100 μL 0.1 M NaOH for 10 minutes at room temperature. An 80 μL aliquot of this solution was used for liquid scintillation counting. Data points were collected in triplicate. IC50-values were calculated with Graphpad Prism v3.00.

[4] = 15 minutes of incubation without added FCA

Sequence of MRP2 (Q92887 whole entry): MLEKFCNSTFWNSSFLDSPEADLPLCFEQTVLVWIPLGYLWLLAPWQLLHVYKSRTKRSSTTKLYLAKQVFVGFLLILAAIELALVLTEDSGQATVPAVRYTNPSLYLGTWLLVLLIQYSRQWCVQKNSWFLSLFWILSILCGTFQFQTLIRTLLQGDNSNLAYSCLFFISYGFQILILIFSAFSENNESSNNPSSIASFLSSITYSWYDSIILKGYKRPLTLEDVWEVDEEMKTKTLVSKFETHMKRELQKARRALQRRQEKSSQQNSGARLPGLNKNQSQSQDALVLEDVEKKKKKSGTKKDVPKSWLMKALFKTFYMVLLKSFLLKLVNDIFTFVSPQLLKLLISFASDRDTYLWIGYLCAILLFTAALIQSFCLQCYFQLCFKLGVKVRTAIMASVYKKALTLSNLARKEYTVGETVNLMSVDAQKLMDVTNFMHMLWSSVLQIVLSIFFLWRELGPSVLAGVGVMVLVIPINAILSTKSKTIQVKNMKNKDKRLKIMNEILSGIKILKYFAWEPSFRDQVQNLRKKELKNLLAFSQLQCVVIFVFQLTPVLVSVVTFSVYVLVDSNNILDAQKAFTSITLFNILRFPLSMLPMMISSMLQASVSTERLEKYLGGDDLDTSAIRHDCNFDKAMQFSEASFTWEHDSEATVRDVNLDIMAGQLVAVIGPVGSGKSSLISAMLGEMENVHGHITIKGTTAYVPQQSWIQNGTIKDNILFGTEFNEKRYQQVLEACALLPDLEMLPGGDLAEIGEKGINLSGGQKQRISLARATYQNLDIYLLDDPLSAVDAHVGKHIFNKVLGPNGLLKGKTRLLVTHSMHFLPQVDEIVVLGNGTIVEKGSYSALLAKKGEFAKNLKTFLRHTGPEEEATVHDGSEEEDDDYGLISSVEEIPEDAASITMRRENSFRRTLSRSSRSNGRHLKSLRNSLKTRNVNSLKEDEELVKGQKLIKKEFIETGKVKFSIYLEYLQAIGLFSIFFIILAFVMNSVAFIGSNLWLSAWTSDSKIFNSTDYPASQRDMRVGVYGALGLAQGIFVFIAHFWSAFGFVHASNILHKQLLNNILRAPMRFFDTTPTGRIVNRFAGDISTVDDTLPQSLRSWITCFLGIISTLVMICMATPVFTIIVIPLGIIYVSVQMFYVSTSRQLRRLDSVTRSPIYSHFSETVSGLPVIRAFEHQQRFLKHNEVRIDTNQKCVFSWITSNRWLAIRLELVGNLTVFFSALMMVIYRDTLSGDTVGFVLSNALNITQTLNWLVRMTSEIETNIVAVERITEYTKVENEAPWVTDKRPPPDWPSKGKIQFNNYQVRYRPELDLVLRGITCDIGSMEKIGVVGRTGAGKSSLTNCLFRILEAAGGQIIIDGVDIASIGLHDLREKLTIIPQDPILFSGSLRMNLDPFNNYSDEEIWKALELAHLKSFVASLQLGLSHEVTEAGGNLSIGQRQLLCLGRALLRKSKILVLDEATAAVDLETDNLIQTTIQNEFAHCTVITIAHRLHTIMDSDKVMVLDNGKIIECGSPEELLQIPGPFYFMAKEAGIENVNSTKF

## C[C@]12CC[C@@H]3c4ccc(O)cc4CC[C@H]3[C@@H]1CC[C@@H]2O[C@@H]1O[C@H](C(=O)O)[C@@H](O)[C@H](O)[C@H]1O [[^3H]EbG, [^3H]estradiol-17β-glucuronide]
[1]; [4]
  uptake in HEK-OATP1B1: 84.0 ± 7.7 pmol/mg protein
[1]; S2 file, 1 µM, 15 minutes
  uptake in HEK-OATP1B1 (kinetic profile): 163.9 pmol/mg protein
[1]; S2 file, 15 minutes
  uptake in HEK-OATP1B1 versus control: 115 times
[2]; [4]
  uptake in HEK-OATP1B3: 8.6 ± 1.3 pmol/mg protein
[2]; S2 file, 1 µM, 15 minutes
  uptake in HEK-OATP1B3 (kinetic profile): 19.0 pmol/mg protein
[2]; S2 file, 15 minutes
  uptake in HEK-OATP1B3 versus control: 13 times
[3]
  uptake in MRP2 vesicles: 18.5 ± 3.8 pmol/mg protein
